Results on four compounds are retold here after ChEMBL document CHEMBL4732201, “Synthesis and preliminary anticancer evaluation of new triazole bisphosphonate-based isoprenoid biosynthesis inhibitors” (Eur J Med Chem, 2021).

Molecules are shown by their SMILES.

The subject of one test is RPMI-8226. The test is described as follows: Antiproliferative activity against human RPMI-8226 cells. Format: functional, cell-based.
In test [1] the target is T1, Farnesyl pyrophosphate synthase (Homo sapiens, UniProt P14324).
T1 sequence (P14324 whole entry): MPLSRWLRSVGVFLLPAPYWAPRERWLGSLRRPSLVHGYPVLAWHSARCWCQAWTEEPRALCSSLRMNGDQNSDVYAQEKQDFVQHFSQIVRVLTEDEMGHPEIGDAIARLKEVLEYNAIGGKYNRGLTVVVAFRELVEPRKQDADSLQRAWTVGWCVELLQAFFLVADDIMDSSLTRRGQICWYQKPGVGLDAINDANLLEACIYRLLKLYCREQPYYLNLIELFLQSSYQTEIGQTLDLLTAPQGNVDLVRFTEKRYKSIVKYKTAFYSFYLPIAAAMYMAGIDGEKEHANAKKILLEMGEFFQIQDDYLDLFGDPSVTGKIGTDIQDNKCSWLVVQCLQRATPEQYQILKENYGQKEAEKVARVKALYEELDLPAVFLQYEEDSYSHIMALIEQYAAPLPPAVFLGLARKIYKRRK
The test is described as follows: Inhibition of FPPS (unknown origin).

Test [2] concerns the target T2, Geranylgeranyl pyrophosphate synthase (Homo sapiens, UniProt O95749).
T2 sequence (O95749 whole entry): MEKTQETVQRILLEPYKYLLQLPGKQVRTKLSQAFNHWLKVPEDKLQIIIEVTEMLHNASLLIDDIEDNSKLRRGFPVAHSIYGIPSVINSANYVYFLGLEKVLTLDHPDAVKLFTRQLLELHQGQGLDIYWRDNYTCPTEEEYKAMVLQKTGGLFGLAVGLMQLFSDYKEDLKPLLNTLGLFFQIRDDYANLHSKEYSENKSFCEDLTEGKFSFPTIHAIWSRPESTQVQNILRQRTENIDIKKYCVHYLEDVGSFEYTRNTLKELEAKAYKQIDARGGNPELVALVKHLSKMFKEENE
The test is described as follows: Inhibition of recombinant human N- terminal His-tagged GGPPS (1 to 300 residues) expressed in Escherichia coli.

Test [3] concerns the target T3, Geranylgeranyl pyrophosphate synthase (Homo sapiens) (UniProt O95749).
T3 sequence (whole entry): T2 sequence (O95749 whole entry)
The test is described as follows: Inhibition of GGPPS in human A549 cells assessed as reduction in cell growth at 100 uM incubated for 72 hrs by MTT assay relative to control. It counts as cell-based.

Test [4] has as its target T3, Geranylgeranyl pyrophosphate synthase (Homo sapiens). As to the kind of experiment: Inhibition of GGPPS in human MDA-MB-231 cells assessed as reduction in cell growth at 100 uM incubated for 72 hrs by MTT assay relative to control. It counts as cell-based.
Test [5] has the same target. As to the kind of experiment: Inhibition of GGPPS in human MIA PaCa-2 cells assessed as reduction in cell growth at 100 uM incubated for 72 hrs by MTT assay relative to control. It counts as cell-based.

Consider `CC(C)=CCCC(C)=CCCc1cn(CC(O)(P(=O)(O)O)P(=O)(O)O)nn1`, for which a half-maximal response in the test with RPMI-8226 (EC50) required 190 nM.
`CC(C)=CCC/C(C)=C\CCc1cn(CC(O)(P(=O)(O)O)P(=O)(O)O)nn1`: the IC50 is 33300 nM in test [1] and 75 nM in test [2].
Turning to `CC(C)=CCC/C(C)=C/CCc1cn(CC(O)(P(=O)(O)O)P(=O)(O)O)nn1`, the half-inhibitory concentration (IC50) in test [1] was 49600 nM; in test [2] it was 173 nM.
As to `CCCCc1cn(CCCC(O)(P(=O)(O)O)P(=O)(O)O)nn1`, the growth inhibition (GI) in test [3], in test [4] and in test [5] was < 30% each time.
